The values below come from patent US6897065B1, “Method for maturation of conifer somatic embryos” (Woody Plant Biotech APS, priority 1999, dated 2005).

Test [1] concerns Picea sitchensis cell lines G.1.12, G.1.13. The test is described as follows: Maturation in embryogenic cultures of Picea sitchensis. The format is cell-based. The settings on record: anti-auxin step as for Picea abies. How it is done: Two cell lines of Picea sitchensis, G.1.12, G.1.13, initiated from cotyledons from mature embryos were used for the present study. The cultures were initiated and pretreated on BMI-S1 medium as above, but with 1000 mg/L casein hydrolysate and 10 μM 2,4-D. Pretreatment, maturation medium and anti-auxin step as for Picea abies.

The subject of test [2] is Abies nordmanniana cell line G.35.8. The test can be described thus: Maturation of established Abies nordmanniana cell line G.35.8 (slowly proliferating). The format is cell-based. From the text: (§1) Three different cell lines of Abies nordmanniana were used in the present study. The tested cell lines have been in continuous culture for several years. The cell line G.3.8 was initiated from an immature zygotic embryo in 1989 on half strength MS medium (Murashige and Skoog, 1962) as described previously (Nørgaard and Krogstrup, 1991), Cell line G.35.8 was initiated from a mature zygotic embryo on SH medium in 1991 (Nørgaard and Krogstrup, 1995), and cell line G.78.14 was initiated in 1993 from an immature zygotic embryo on modified half strength BLG medium (Verhagen and Wann, 1989). From 1996, all cultures were maintained by biweekly subculture onto fresh half strength modified BLG medium and grown at 24+/−1° C. in the dark. Cell lines G.3.8 and G.78.14 proliferated fast on maintenance medium with a doubling time of the weight shorter than 2 weeks. Cell line G.35.8 proliferated relatively slowly with a doubling time of the weight higher than 2 weeks.
The standard maturation medium (the control) is modified from the half strength BLG proliferation medium mentioned above. […] The choice of these three culture medium components is determined primarily by the conifer species in question. […] Similarly it is known that addition of PEG-4000 improves maturation. […]

For test [3], the system named is Abies nordmanniana cell line G.3.8. The test is described as follows: Maturation of established Abies nordmanniana cell line G.3.8 (fast proliferating). It is filed as cell-based.
Excerpt: as §1
(§2) The standard maturation medium (the control) is modified from the half strength BLG proliferation medium mentioned above. […] The choice of these three culture medium components is determined primarily by the conifer species in question. […] Similarly it is known that addition of PEG-4000 improves maturation. Still it may be possible to obtain just as good results with other combinations of these components and also by using other components with equivalent effects.
(§3) In this experiment, the standard maturation medium was modified by excluding PEG and by including one of the following 3 chemicals, that are traditionally expected to affect the endogenous concentration of the naturally occurring auxin IAA or to affect the normal effect of auxin in plant cells: 1) PCIB (auxin-antagonist) in a concentration of 25 or 117 μM, 2) TIBA (auxin transport inhibitor) in a concentration of 5 or 50 μM, 3) phlouroglucinol: (inhibitor of auxin degradation) (see George 1993, page 429 bottom-430) in a concentration of 30 mM. In addition to these modifications the standard maturation medium was modified by: 4) reducing the concentration of boron (precursor of indole acetic acid synthesis) to 10 μM, i.e. 20% of the normal concentration and finally by 5) including 25 μM PCIB in medium with no ABA.
(§4) The cultures were matured in the dark at 24° C.+/−1° C.
Two weeks after the last subculture, 4 grams of embryogenic cells was transferred to a 250 mL Flask (Blue cap) together with a magnet stirrer. 100 mL of liquid proliferation medium was added, and the suspension was stirred for 5 minutes at high speed on a magnet stirrer to obtain a homogenous suspension of cells and cell clumps. The culture was then pre-cultured on a gyrotory shaker (120 rpm) for one week at 24+/−1° C. in the dark. […]

The test system of test [4] is embryogenic cell lines of Abies nordmanniana. The test is described as follows: Maturation of the tested established Abies nordmanniana embryogenic cell lines (G.3.8, G.35.8, G.78.14). The format is cell-based.
Excerpt: as §1, §2, §3, §4
Two weeks after the last subculture, 4 grams of embryogenic cells was transferred to a 250 mL Flask (Blue cap) together with a magnet stirrer. 100 mL of liquid proliferation medium was added, and the suspension was stirred for 5 minutes at high speed on a magnet stirrer to obtain a homogenous suspension of cells and cell clumps. The culture was then pre-cultured on a gyrotory shaker (120 rpm) for one week at 24+/−1° C. in the dark. Following the pre-culture, the culture was stirred again on a magnet stirrer at high speed for 5 minutes. The culture was transferred to a 100 mL measuring cylinder and allowed to settle for 30 min. The supernatant was discharged and from the remaining culture aliquots of 1 mL were transferred with a cut pipette tip onto filter paper (Whatmann #2) placed on 25 mL of maturation medium in 10 cm Petri dishes (Nunc, Denmark). The filters containing the maturing somatic cultures were transferred onto fresh medium every 2 weeks.
FIG. 5 discloses maturation of cell line G.78.14. This cell line proliferates rapidly and produces very few normal mature embryos according to prior methods. The cell line was matured for 20 weeks on medium comprising 40 μM ABA and a) 25 μM PCIB, b) 0.4 mM phloroglucinol, or c) reduced concentration of Boron (20% of normal concentration). For control see FIG. 1a or 2a.
FIG. 6 discloses maturation of cell line G.78.14 for 20 weeks on maturation medium comprising 40 μM ABA and a) 2.5 mg/L TIBA (5 μM), or b) 25 mg/L TIBA (50 μM).

Test [5] has as its system mature somatic embryos of Abies nordmanniana. The test is described as follows: Germination of mature somatic embryos. Particulars: embryos matured with PCIB in the maturation medium. As for the experimental part: Well-developed mature embryos were collected for cold treatment after about 20 weeks of maturation. The isolated mature embryos were transferred to a nylon filter that was placed on a foam rubber pad in a high Petri dish. A wetted filter paper was placed in the bottom and in the lid of the Petri dish. The Petri dish was closed, sealed with two rounds of polyethylene film, wrapped with aluminium foil, and then placed at 5° C. in the dark for 4 weeks for cold treatment. After cold treatment, the nylon filter with the mature embryos was transferred to BGM-2 medium (Krogstrup et al, 1988). The BGM-2 medium included 20 g/L sucrose, 10 g/L activated charcoal (Merck 5411), and was galled with 3.5 g/L Phytagel (Gellan gum). The Petri dishes were placed in a growth room at 20° C. with a 16 hour photoperiod. After one week of germination, the nylon net was removed and the embryos were placed in direct contact with the medium. After two weeks of germination, embryos with a root were placed vertically with the root submerged in the medium. Later, the germinating embryos were transferred to soil and placed in a controlled greenhouse.

[6] abbreviates: 25 μM PCIB + 40 μM ABA from week 4 to 8 of the 20 week maturation period.
The mark [7] stands for this setting: medium including both ABA and 25 μM PCIB.

For `CC(C)(Oc1ccc(Cl)cc1)C(=O)O` [PCIB, p-Chlorophenoxyisobutyric acid], in test [1], the “general appearance of the cultures” value is given as “improved”. Besides, the proliferation during maturation entry is “proliferation was clearly reduced” in test [1]; “strongly reduced” in test [3] (25 μM PCIB during the entire maturation period); “reduced slightly” in test [3] (25 μM PCIB from week 4 to 8 of the 20 week maturation period); “proliferation was reduced” in test [4] (25 μM PCIB, ABA excluded); “proliferation was reduced” in test [4] (setting [7]). Also, the “number of well formed mature embryos” value in test [2] (25 μM PCIB + 40 μM ABA during the entire maturation period) is recorded as “about 15 embryos per Petri dish”; in test [2] (setting [6]), “about 250 embryos per Petri dish”; in test [3] (setting [6]), “about 40 embryos per Petri dish”. Besides, the “number of well-formed mature embryos” value in test [3] (25 μM PCIB + 40 μM ABA during the entire 20 week maturation period) was “about 125 embryos per Petri dish”. Moreover, the “development of mature embryos” value in test [4] (25 μM PCIB, ABA excluded, 20 weeks, all tested cell lines) was “only few and clearly abnormal and precociously germinating embryos were developed”. The “embryo morphology (abnormality)” value is “the embryos developed asymmetrically with one major and one minor cotyledon (FIG. 4C) or with only one cotyledon” in test [4] (higher concentrations than 25 μM of PCIB); “embryos with only two symmetric cotyledons developed” in test [4] (slowly proliferating cell lines, ABA and 25 μM PCIB for longer periods than 4 weeks). For the same molecule, the “development of embryos during maturation” value in test [4] (setting [7]) is recorded as “high numbers of embryos developed”. For the same molecule, in test [5], the “embryos that developed both shoot and root on germination” value was about 100%.
